From article doi:10.1101/2020.02.20.957365v1, “Tree bark scrape fungus: A potential source of laccase for application in bioremediation of non-textile dyes” (biorxiv, 2020) come the findings set out here.

The test system of this assay is T1, laccase of Aspergillus sp. HB_RZ4.
T1 construct: native extracellular enzyme purified from culture supernatant (ammonium sulfate, DEAE-cellulose, Sephadex G-100); about 62 kDa by SDS-PAGE
Put plainly: ABTS oxidation at […] nm, Michaelis-Menten and Lineweaver-Burk. Format: biochemical. Particulars: apparent Km; ABTS 10-200 mM; assay buffer 100 mM sodium acetate pH 4.0; free enzyme.

Usually Km stands for the substrate concentration at which the rate is half of its maximum. On to `CCn1c(=NN=c2sc3cc(S(=O)(=O)O)ccc3n2CC)sc2cc(S(=O)(=O)O)ccc21` [ABTS, 2,2’-azino-bis (3-ethylbenzothiazoline 6-sulphonic acid)], for which the Km was found to be 26.8 mM.
